Read-outs that look alike come from different tables or passages of the source.
What was measured:
Assay in all cases: Efficacy screening assay
Format in all cases: cell-based
5637 (HTB-9) = test system: 5637 (HTB-9)
Protocol: (§1) labelled fluorogenic peptide substrates: fluorogenic peptide from p53 residues 379-382 (RHKK(Ac)AMC) for HDAC1, 2, 3, 6, 10, 11; fluorogenic HDAC Class IIa Substrate (Trifluoro acetyl Lysine, Ac-LGK(TFA)-AMC) for HDAC 4, 5, 7, 9; and fluorogenic peptide from p53 residues 379-382 (RHK(Ac)K(Ac)AMC) for HDAC8. 1 mg/mL BSA and DMSO was added to the assay buffer (50 mM Tris-HCl, pH 8.0; 137 mM NaCl; 2.7 mM KCl; 1 mM MgCl2) prior to use. In a two-step reaction, the substrate with the acetylated lysine side chain was incubated for with a sample containing HDAC activity to p roduce the deacetylated products: 1 h at 30°C for HDAC1, 2, 3 and 6; 30 min at RT for HDAC4, 5, 7 and 9; 2 h at 30°C for HDAC8, 10 and 11. In a second step, the deacetylated products were digested by the addition of developer for 1 h at 30°C to produce the fluorescent signal proportional to the amount of deacetylated substrates and the fluorescence was measured using an Envision plate reader at 355 nm (excitation) and 460 nm (emission). A kinetic measurement was performed for ~1 h with 5 min intervals and d ata from the final time point were analysed. IC50 values and curve fits were obtained using GraphPad Softwar e.
(§2) The experiment was performed by Oncolead GmbH & Co. KG (Karlsfeld , Germany), based on a standardized screening procedure . Cell lines were purchased directly from the ATCC, NCI and DSMZ cell line c ollections. Cells used for the study had undergone less than 20 passages. To ensure the absence of potential contamination and wrong assignment, all cell lines were tested using a whole genome assay (Agilent, USA). All cell lines were grown as recommended by the suppliers and with addition of 100 U/mL penicillin G and 100 µg/mL; streptomycin. Cell growth and treatments were performed in Nunclon D 96 -well plates (NUNC, Germany). The optimal seeding density for each cell line was determined to ensure exponential growth for the duration of the experiment. All cells growing without anti-cancer agents were sub-conﬂuent by the end of the treatment, as determined by visual inspection.
(§3) After an initial 24 h pre-growth period, the compounds were added. The vehicle concentration […]
(§4) was 0.1% DMSO. After incubation at 37°C for 72 h, the culture medium was aspirated, and the cells were precipitated by the addition of 10% trichloroacetic acid (Sigma-Aldrich, Missouri, US). After overnight incubation at 4°C, the plates were washed three times with deionized water. The precipitates were then stained with SRB (0.4% wt/v sulforhodamine B solution in 1% acetic acid, Sigma-Aldrich, Missouri, US). Afterwards, the plates were washed six times with 1% acetic acid to remove unbound stain. After drying the plates at room temperature, the bound SRB was solubilized with 10 mM Tris base and the optical density was measured at 520 nm using a Victor2 plate reader (Perkin Elmer, Germany). Blank OD values were subtracted from mean OD values for each concentration. The nonlinear curve ﬁtting and EC50 calculations were per formed using XLﬁt and algorithm “205” (ID Business […]
(§5) For cell-based and other in vitro assays, data are presented as data mean ± SD of at least […]
(§6) For the orthotopic mouse model, data are presented as mean + SEM. For statistical analysis, one-way ANOVA and multiple comparison (Dunnett) was performed for compound treatments compared to vehicle control. The adjusted p-values with 95% confidence interval were reported as significant. For comparison of EC50 values in Figure 1F, one-way ANOVA with multiple comparison testing (Tukey) was performed. Multiplicity adjusted p -values for the EC50 with sorafenib versus resminostat for each cell line and comparison between cell lines for sorafenib are presented (95% confidence interval for significance testing). For comparison of EC50 data in Figure 2B, one-way ANOVA with multiple comparison testing (Tukey) was performed. Multiplicity adjusted p-values with 95% confidence interval was applied. For the […]

SKMEL28 = conditions: Homo sapiens, SK-MEL-28, SKMEL28, skin, 72 h
Protocol: as §1, §2, §3, §4, §5, §6

SF295 = conditions: SF295, brain
Protocol: as §1, §2, §3, §4, §5, §6

DU145 = conditions: DU145, prostate
Protocol: as §1, §2, §3, §4, §5, §6

SKOV3 = conditions: SKOV3, ovary
Protocol: as §1, §2, §3, §4, §5, §6

U87MG = conditions: 72 h, brain
Protocol: as §1, §2, §3, §4, §5, §6

TE671 = conditions: TE671, muscle
Protocol: as §1, §2, §3, §4, §5, §6

DLD1 = conditions: Homo sapiens, DLD-1, DLD1, colon, 72 h
Protocol: as §1, §2, §3, §4, §5, §6

HepG2 = conditions: Homo sapiens, HepG2, 72 h, HEPG2, liver
Protocol: as §1, §2, §3, §4, §5, §6

SW620 = conditions: SW620, colon
Protocol: as §1, §2, §3, §4, §5, §6

COLO205 = conditions: COLO205, colon
Protocol: as §1, §2, §3, §4, §5, §6

[1] = log of EC50, negative, read-out: log(EC50) (converted)

Work on `CN(C)Cc1ccc(S(=O)(=O)n2ccc(/C=C/C(=O)NO)c2)cc1` [resminostat, Resminostat] yielded an EC50 (5637 (HTB-9); 72 h, bladder, log of EC50, negative, read-out: log(EC50) (converted)) of 1120 nM, an EC50 (5637 (HTB-9); 72 h, bladder, read-out: EC50) of 1130 nM and an EC50 (5637 (HTB-9); bladder, 72 h, read-out: EC50) of 1130 nM. For the same molecule, the EC50 (SKMEL28; [1]) was 3310 nM, the EC50 (SKMEL28; read-out: EC50) was 3340 nM and the EC50 (SF295; Homo sapiens, SF-295, 72 h, log of EC50, negative, read-out: log(EC50) (converted)) was 2510 nM. It also gave an EC50 (SF295; Homo sapiens, SF-295, 72 h, read-out: EC50) of 2530 nM, an EC50 (SF295; 72 h, read-out: EC50) of 2530 nM and an EC50 (DU145; 72 h, read-out: EC50) of 1380 nM. For the same molecule, the EC50 (DU145; Homo sapiens, DU-145, 72 h, log of EC50, negative, read-out: log(EC50) (converted)) was 1380 nM, the EC50 (DU145; Homo sapiens, DU-145, 72 h, read-out: EC50) was 1380 nM and the EC50 (SKOV3; Homo sapiens, SK-OV-3, 72 h, log of EC50, negative, read-out: log(EC50) (converted)) was 3720 nM. The EC50 (SKOV3; Homo sapiens, SK-OV-3, 72 h, read-out: EC50) was 3690 nM, the EC50 (SKOV3; 72 h, read-out: EC50) was 3690 nM and the EC50 (U87MG; Homo sapiens, U-87 MG, log of EC50, negative, read-out: log(EC50) (converted)) was 5500 nM. It also gave an EC50 (U87MG; Homo sapiens, U-87 MG, read-out: EC50) of 5550 nM, an EC50 (U87MG; read-out: EC50) of 5550 nM and an EC50 (TE671; Homo sapiens, TE-671, 72 h, log of EC50, negative, read-out: log(EC50) (converted)) of 1350 nM. It also gave an EC50 (TE671; Homo sapiens, TE-671, 72 h, read-out: EC50) of 1340 nM, an EC50 (TE671; 72 h, read-out: EC50) of 1340 nM and an EC50 (DLD1; [1]) of 1950 nM. The EC50 (DLD1; read-out: EC50) was 1950 nM, the EC50 (HepG2; [1]) was 501 nM and the EC50 (HepG2; read-out: EC50) was 504 nM. For the same molecule, the EC50 (SW620; Homo sapiens, SW-620, 72 h, log of EC50, negative, read-out: log(EC50) (converted)) was 1290 nM, the EC50 (SW620; Homo sapiens, SW-620, 72 h, read-out: EC50) was 1270 nM and the EC50 (SW620; 72 h, read-out: EC50) was 1270 nM. The EC50 (COLO205; 72 h, read-out: EC50) was 2540 nM, the EC50 (COLO205; Homo sapiens, COLO 205, 72 h, log of EC50, negative, read-out: log(EC50) (converted)) was 2570 nM and the EC50 (COLO205; Homo sapiens, COLO 205, 72 h, read-out: EC50) was 2540 nM.

Source: article PMC8100298, “Histone deacetylase inhibitor resminostat in combination with sorafenib counteracts platelet-mediated pro-tumoral effects in hepatocellular carcinoma” (Scientific Reports, 2021)
